US10098888B2, “Substituted benzene compounds” (Epizyme, Inc., priority 2012, dated 2018)
Read-outs that look alike come from different tables or passages of the source.

How the values were obtained:
WSU-DLCL2 cells = assay: Cell Proliferation Analysis (WSU-DLCL2, Cell Titer Glo); format: cell-based; details: Homo sapiens, WSUDLCL2, 6 days
CYP3A4/5 = assay: Time-Dependent Inactivation (TDI) assessment of CYP3A4/5; format: in vitro ADME, human; details: for inactivation of CYP3A4/5 (conclusion in words): using midazolam as probe
[1] = system: human cytochromes P450 (CYP); assay: Assessment of CYP inhibition, overall conclusion on reversible inhibition; details: human liver microsomes
CYP1A = assay: CYP induction in cryopreserved human hepatocytes, CYP1A; details: 48 hours, positive control β-naphthoflavone
Karpas-422 xenograft = assay: Efficacy study in Karpas-422 xenograft model; format: in vivo; details: mice, p.o. BID, up to 28 days
Experimental: (§1) The animals were fed ad libitum water (reverse osmosis 1 ppm Cl) and NIH 31 Modified and Irradiated Lab Diet® consisting of 18.0% crude protein, 5.0% crude fat, and 5.0% crude fiber. The mice were housed on irradiated Enrich-o'cobs™ bedding in static microisolators on a 12-hour light cycle at 20-22° C. (68-72° F.) and 40-60% humidity. Alf procedures complied with the recommendations of the Guide for Care and Use of Laboratory Animals with respect to restraint, husbandry, surgical procedures, feed and fluid regulation, and veterinary care.
Human lymphoma cell lines line were obtained from different sources (ATCC, DSMZ), e.g., Karpas-422 obtained from DSMZ. […]
Human lymphoma cell lines, e.g., Karpas-422 cells, were harvested during mid-log phase growth, and re-suspended in […] base media and 50% Matrigel™ (BD Biosciences) (RPMI:Matrigel=1:1). […] Tumor size, in mm^3, was calculated from: […]
(§2) Mice were treated at compound doses ranging from 62.5-500 mg/kg on a BID (2 times a day every 12 h) schedule for various amounts of days by oral gavage. Each dose was delivered in a volume of 0.2 mL/20 g mouse (10 mL/kg), and adjusted for the last recorded weight of individual animals. […]
Treatment efficacy was determined on the last treatment day, MTV(n), the median tumor volume for the number of animals, n, evaluable on the last day, was determined for each group. […]

[2] = Tolerability in Karpas-422 xenograft tumor bearing mice (body weight); format: in vivo; details: Karpas-422 xenograft mice, p.o. BID, up to 28 days
Experimental: as §1
Test compounds were stored at room temperature and protected from light. On each treatment day, fresh compound formulations were prepared by suspending the powders in 0.5% sodium carboxymethylcellulose (NaCMC) and 0.1% Tween® 80 in deionized water. […]
as §2
In order to test whether a compound could induce an anti-tumor effect in vivo, Karpas-422 xenograft tumor bearing mice were treated with a compound at, e.g., 62.5, 125, 250, or 500 mg/kg BID for 28 days. […] The tumor growth over the treatment course of 28 days for vehicle and test compound treated groups was measured.

CYP2B6 = assay: CYP induction in cryopreserved human hepatocytes, CYP2B6; details: 1 μm, 48 hours, positive control phenobarbital
[3] = pH 7.4, probe testosterone, time-dependent inactivation of CYP3A4/5, human liver microsomes, read-out: KI

Structure (SMILES) | IC50 (WSU-DLCL2 cells) [µM] | Ki (CYP3A4/5; [3]) [µM] | inactivation of CYP3A4/5 (conclusion in words) (CYP3A4/5) | reversible CYP inhibition (conclusion in words) [1] | CYP1A % Positive Control (CYP1A; 1 μm) [%] | CYP1A % Positive Control (CYP1A; 10 μm) [%] | Ki (CYP3A4/5; human, human liver microsomes, pH 7.4, time-dependent inactivation of CYP3A4/5, footnote ** not given, read-out: KI (value in parentheses marked **)) [µM] | antitumor effect in Karpas-422 xenograft model (Karpas-422 xenograft) | tolerability [2] | CYP2B6 % Positive Control (CYP2B6) [%]
CCN(c1cc(C#CCN2CCOCC2)cc(C(=O)NCc2c(C)cc(C)[nH]c2=O)c1C)[C@H]1CC[C@H](N(C)CCOC)CC1 [Compound 2, N-((4,6-dimethyl-2-oxo-1,2-dihydropyridin-3-yl)methyl)-3-(ethyl((trans)-4-((2-methoxyethyl)(methyl)amino)cyclohexyl)amino)-2-methyl-5-(3-morpholinoprop-1-yn-1-yl)benzamide] | 0.385 | 22.3 | time-, concentration-, and NADPII-dependent inactivation of CYP3A4/5 | no significant reversible inhibition |  |  |  |  |  | 
CCN(c1cc(C#CC2CCN(C)CC2)cc(C(=O)NCc2c(C)cc(C)[nH]c2=O)c1C)C1CCOCC1 [Compound 105, N-((4,6-Dimethyl-2-oxo-1,2-dihydropyridin-3-yl)methyl)-3-(ethyl(tetrahydro-2H-pyran-4-yl)amino)-2-methyl-5-((1-methylpiperidin-4-yl)ethynyl)benzamide] |  | 10.2 | time-, concentration-, and NADPII-dependent inactivation of CYP3A4/5 | potentially significant inhibition of CYP2D6 and CYP3A4 (midazolam) | 3.0 | 4.4 |  |  |  | 
CCN(c1cc(-c2ccc(OCCOC)cc2)cc(C(=O)NCc2c(C)cc(C)[nH]c2=O)c1C)[C@H]1CC[C@H](N(C)C)CC1 [Compound 1, N-((4,6-dimethyl-2-oxo-1,2-dihydropyridin-3-yl)methyl)-5-(((trans)-4-(dimethytamino)-cyclohexyl)(ethyl)-amino)-4′-(2-methoxyethoxy)-4-methyl-[1,1′-biphenyl]-3-carboxamide] |  | 6.4 | time-, concentration-, and NADPII-dependent inactivation of CYP3A4/5 | no significant reversible inhibition | 2.8 | 3.0 | 3.3 | tumor stasis and regression | well tolerated | 18.0
